For data set [1], the system named is tumor cells (A549, SMMC-7721, U251, SGC-7901, MCF-7). Description: tumor cell proliferation inhibition test (MTT), all cell lines tested. The class given is cell-based, human. To be noted: in some cell lines tested. The text has this:
(§1) The compounds of the present invention were subjected to tumor cell proliferation inhibition test, and the conventional MTT method was used as the test method.
(§2) Cell lines selected are nonismall cell lung cancer cells (A549), human hepatocellular carcinoma cells (SMMC-7721), human glioma cells (U251), human gastric adenocarcinoma cells (SGC-7901), and human breast cancer cells (MCF-7). The culture medium was DMEM+15% NBS+double antibody.
(§3) Preparation of the sample solutions: compounds were dissolved in DMSO (Merck), and PBS (−) was add to 100 μL of the solution or homogeneous suspension. The solution or suspension was diluted with DMSO and PBS(−) to final concentrations of 0.1, 1, 10, 20, 40, 60, 80, 100 μmol/L.
(§4) Anti-tumor agent cytarabine (Ara-C) was used as control and was prepared in the same way as the compounds.
(§5) Cell culture: adherent growth Tumor cells were cultured in 1640 medium containing 10% inactivated neonatal bovine serum and penicillin, streptomycin (1 million U/L), placed in carbon dioxide incubator at 37° C., 5% CO2, and saturated humidity. Cells were treated serially passaged 2-3 times. The first culture was washed with PBS 2 times, and digested with trypsin. Fresh culture medium was added evenly, cells were adjusted to a appropriate concentration and transferred into a new culture flask. Cell in an exponential phase were chosen for the tests.
(§6) Experimental Principle: Living cells mitochondria in the dehydrogenase can reduce yellow MTT to water-insoluble blue-violet product MT (MTT formazan), deposited in the cells. The amount of production is proportional to the number of living cells. […] DMSO can dissolve blue violet crystals, and the color depth is proportional to the amount contained, so the absorbance measured by the microplate reader can reflect the cell viability.
(§7) Methods: The exponential phase cells were digested and counted and seeded in 96-well plates at a density of 2×10^4/mL at 100 μl per well. After 24 hours of incubation, the cells to be tested were treated with 0.1, 1, 10, 20, 40, 60, 80, 100 μmol/L of the compounds. Each experimental group had 5 wells in each concentration, and the culture medium containing 0.4% DMSO was used as control. After 48 hours, the supernatant was discarded, and 100 μl of MTT ((2-(4,5-dimethyl-2-thiazolyl)-3,5-diphenyl-2H-[…]) (1 mg/mL) was added to each well. After another 4 hours, the supernatant was discarded, and 100 μL of DMSO was added to each well. After mixing, the absorbance was measured at 570 nm using a microplate reader. An IC50 calculation software was used to determine the half inhibitory concentration (IC50).

The test system of data set [2] is human breast cancer cells (MCF-7). Briefly: tumor cell proliferation inhibition test (MTT), MCF-7. The class given is cell-based. To be noted: MCF7, MCF-7 cells, 48 hours.
From the text: as §1, §2, §3, §4, §5, §6, §7

In data set [3] the test system is human glioma cells (U251). Briefly: tumor cell proliferation inhibition test (MTT), U251. Format: cell-based. To be noted: U-251, 48 hours.
From the text: as §1, §2, §3, §4, §5, §6, §7

Data set [4] concerns human hepatocellular carcinoma cells (SMMC-7721). Briefly: tumor cell proliferation inhibition test (MTT), SMMC-7721. The class given is cell-based. To be noted: SMMC-7721 cells, 48 hours.
From the text: as §1, §2, §3, §4, §5, §6, §7

For data set [5], the system named is human gastric adenocarcinoma cells (SGC-7901). Description: tumor cell proliferation inhibition test (MTT), SGC-7901. Format: cell-based. To be noted: SGC-7901 cells, 48 hours.
From the text: as §1, §2, §3, §4, §5, §6, §7

The subject of data set [6] is nonismall cell lung cancer cells (A549). Briefly: tumor cell proliferation inhibition test (MTT), A549. The class given is cell-based. To be noted: Homo sapiens, 48 hours.
From the text: as §1, §2, §3, §4, §5, §6, §7

The test system of data set [7] is HepG2 cells. To be noted: in vitro; time-dependent and dose-effect relationship; cited from earlier work.
For data set [8] the following is noted: rats; cited from earlier work.

Molecules are shown by their SMILES. Bounds are passed on as bounds.

The IC50 is the concentration that inhibits the measured activity by half. Lower therefore signals higher potency. Consider `COc1ccc([C@@H]2CC(=O)c3c(O)cc(OC(=O)/C=C/c4ccc(O)c(OC)n4)cc3O2)cc1OC` [Compound M, (S,E) 2-(3,4-dimethoxyphenyl)-5-hydroxy-4-oxochroman-7-yl 3-(5-hydroxy-6-methoxypyridin-2-yl) acrylate acid ester], for which the “activities compared with Ara-C” value in data set [1] was “equal or better activities than Ara-C”. Also, the IC50 in data set [2] was 18.6 ± 1.01 µM; in data set [3] it was above 100 µM; in data set [4], 33.3 ± 2.08 µM; in data set [5], 63.87 ± 0.4 µM; in data set [6], above 100 µM.
On to `COc1ccc([C@@H]2CC(=O)c3c(O)cc(OC(=O)/C=C/c4ccc(Cl)cn4)cc3O2)cc1O` [Compound C, (S,E) 5-hydroxy-2-(3-hydroxy-4-methoxyphenyl)-4-oxochroman-7-yl 3-(5-chloropyridin-2-yl) acrylate acid ester], for which, in data set [1], the “activities compared with Ara-C” value was “equal or better activities than Ara-C”. In addition, the IC50 is 22.7 ± 0.32 µM in data set [2]; 11.7 ± 0.45 µM in data set [3]; 86.9 ± 2.28 µM in data set [4]; 18.4 ± 1.71 µM in data set [5]; 5.54 ± 0.39 µM in data set [6].
As to `COc1ccc([C@@H]2CC(=O)c3c(O)cc(OC(=O)/C=C/c4ccc(C)cn4)cc3O2)cc1O` [Compound B, (S,E) 5-hydroxy-2-(3-hydroxy-4-methoxyphenyl)-4-oxochroman-7-yl 3-(5-methylpyridin-2-yl) acrylate acid ester], the “activities compared with Ara-C” value in data set [1] is listed as “equal or better activities than Ara-C”. In addition, the IC50 is above 100 µM in data set [2]; 46 ± 0.21 µM in data set [3]; 67.1 ± 1.74 µM in data set [4]; above 100 µM in data set [5]; above 100 µM in data set [6].
Regarding `COc1ccc([C@@H]2CC(=O)c3c(O)cc(OC(=O)/C=C/c4ccc(F)cn4)cc3O2)cc1OC` [Compound J, (S,E) 2-(3,4-dimethoxyphenyl)-5-hydroxy-4-oxochroman-7-yl 3-(5-fluoropyridin-2-yl) acrylate acid ester], in data set [1], the “activities compared with Ara-C” value is “equal or better activities than Ara-C”. For the same molecule, the IC50 was 16.1 ± 0.47 µM in data set [2]; 25.1 ± 0.47 µM in data set [3]; 84.31 ± 0.47 µM in data set [4]; above 100 µM in data set [5]; 46.3 ± 0.47 µM in data set [6].
`COc1ccc([C@@H]2CC(=O)c3c(O)cc(OC(=O)/C=C/c4ccccn4)cc3O2)cc1OC` [Compound G, (S,E) 2-(3,4-dimethoxyphenyl)-5-hydroxy-4-oxochroman-7-yl 3-(pyridin-2-yl) acrylate acid ester]: in data set [1], the “activities compared with Ara-C” value is “equal or better activities than Ara-C”. Also, the IC50 in data set [2] is above 100 µM; in data set [3] it was 28.5 ± 0.45 µM; in data set [4], above 100 µM; in data set [5], above 100 µM; in data set [6] it was 69.13 ± 0.36 µM.
As to `COc1ccc([C@@H]2CC(=O)c3c(O)cc(OC(=O)/C=C/c4ccc([N+](=O)[O-])cn4)cc3O2)cc1O` [Compound E, (S,E) 5-hydroxy-2-(3-hydroxy-4-methoxyphenyl)-4-oxochroman-7-yl 3-(5-nitropyridin-2-yl) acrylate acid ester], the IC50 in data set [2], in data set [3], in data set [4], in data set [5] and in data set [6] was above 100 µM throughout.
For `COc1ccc([C@@H]2CC(=O)c3c(O)cc(OC(=O)/C=C/c4ccc(Cl)cn4)cc3O2)cc1OC` [Compound I, (S,E) 2-(3,4-dimethoxyphenyl)-5-hydroxy-4-oxochroman-7-yl 3-(5-chloropyridin-2-yl) acrylate acid ester], the “activities compared with Ara-C” value in data set [1] is recorded as “equal or better activities than Ara-C”. In addition, the IC50 was above 100 µM in data set [2]; 63.9 ± 2.28 µM in data set [3]; 63.9 ± 2.28 µM in data set [4]; 16.1 ± 0.47 µM in data set [5]; above 100 µM in data set [6].
For `COc1ccc([C@@H]2CC(=O)c3c(O)cc(OC(=O)/C=C/c4ccc([N+](=O)[O-])cn4)cc3O2)cc1OC` [Compound K, (S,E) 2-(3,4-dimethoxyphenyl)-5-hydroxy-4-oxochroman-7-yl 3-(5-nitropyridin-2-yl) acrylate acid ester], the IC50 in data set [2], in data set [3], in data set [4], in data set [5] and in data set [6] was above 100 µM in each case.
For the molecule `COc1ccc([C@@H]2CC(=O)c3c(O)cc(OC(=O)/C=C/c4ccc(F)cn4)cc3O2)cc1O` [Compound D, (S,E) 5-hydroxy-2-(3-hydroxy-4-methoxyphenyl)-4-oxochroman-7-yl 3-(5-fluoropyridin-2-yl) acrylate acid ester], in data set [1], the “activities compared with Ara-C” value is recorded as “equal or better activities than Ara-C”. Besides, the IC50 in data set [2] was found to be 23.7 ± 1.5 µM; in data set [3], 57.13 ± 0.47 µM; in data set [4], 12.8 ± 1.37 µM; in data set [5] it was 67.13 ± 0.28 µM; in data set [6], 7.28 ± 0.13 µM.
`COc1ccc([C@@H]2CC(=O)c3c(O)cc(OC(=O)/C=C/c4ccccn4)cc3O2)cc1O` [Compound A, (S,E) 5-hydroxy-2-(3-hydroxy-4-methoxyphenyl)-4-oxochroman-7-yl 3-(pyridin-2-yl) acrylic acid ester]: the “activities compared with Ara-C” value in data set [1] is “equal or better activities than Ara-C”. Also, the IC50 in data set [2] is 43.1 ± 1.31 µM; in data set [3], above 100 µM; in data set [4], 46.8 ± 1.56 µM; in data set [5], 89.9 ± 1.02 µM; in data set [6] it was 35.1 ± 0.47 µM.
Regarding `COc1ccc([C@@H]2CC(=O)c3c(O)cc(OC(=O)/C=C/c4ccc(C)cn4)cc3O2)cc1OC` [Compound H, (S,E) 2-(3,4-dimethoxyphenyl)-5-hydroxy-4-oxochroman-7-yl 3-(5-methylpyridin-2-yl) acrylate acid ester], the “activities compared with Ara-C” value in data set [1] was “equal or better activities than Ara-C”. The IC50 is above 100 µM in data set [2]; above 100 µM in data set [3]; 47.88 ± 0.4 µM in data set [4]; 63.9 ± 2.28 µM in data set [5]; above 100 µM in data set [6].
On to `COc1ccc([C@@H]2CC(=O)c3c(O)cc(OC(=O)/C=C/c4ccc(O)c(OC)n4)cc3O2)cc1O` [Compound F, (S,E) 5-hydroxy-2-(3-hydroxy-4-methoxyphenyl)-4-oxochroman-7-yl 3-(5-hydroxy-6-methoxypyridin-2-yl) acrylate acid ester], for which the “activities compared with Ara-C” value in data set [1] is on record as “equal or better activities than Ara-C”. In addition, the IC50 in data set [2] was 92.1 ± 2.73 µM; in data set [3], above 100 µM; in data set [4], 23.7 ± 1.5 µM; in data set [5], above 100 µM; in data set [6], above 100 µM.
With `Nc1ccn([C@@H]2O[C@H](CO)[C@@H](O)[C@@H]2O)c(=O)n1` [Ara-C, cytarabine, reference compound], the IC50 was 76.9 ± 1.78 µM in data set [2]; 19.2 ± 0.39 µM in data set [3]; 18.3 ± 0.64 µM in data set [4]; 67.6 ± 3.73 µM in data set [5]; above 100 µM in data set [6].
In the case of `COc1ccc([C@@H]2CC(=O)c3c(O)cc(O)cc3O2)cc1O` [hesperetin, Hesperetin], in data set [7], the “inhibition of proliferation of HepG2 cells” value was “can inhibit the proliferation of HepG2 cells in vitro”. Further, in data set [8], the toxicity of doxorubicin result is recorded as “could reduce the toxicity of doxorubicin in rats”.

These data come from patent US10059698B2, “Hesperetin aza-cinnamic acid derivatives with anti-tumor activities and a method of preparing the same” (Shaanxi University of Science and Technology, priority 2016, dated 2018).
